Experimental data published in the NIST ThermoML archive (doi:10.1016/j.fluid.2014.12.033).
± gives the expanded uncertainty stated by the source.

Details: Liquid

Row | Normal boiling temperature (DSC) [°C] | Normal boiling temperature (Distillation) [°C] | Compound
1 | 260 ± 16 | – | CCCCC(CC)COP(=O)(O)OCC(CC)CCCC (centres undefined) [bis(2-ethylhexyl) hydrogen phosphate]
2 | – | 82 ± 1 | C1CCCCC1 [cyclohexane]
3 | – | 193 ± 1 | CCCCCCCCO [octan-1-ol]
4 | – | 62 ± 1 | ClC(Cl)Cl [trichloromethane]
